In one data set the target is human O-GlcNAcase (Homo sapiens (Human), UniProt O60502). The data set is described as follows: Assay for determination of Ki values for inhibition of O-GlcNAcase activity (fluorescence-based). The format is biochemical. The conditions noted are these: purified human O-GlcNAcase 0.7 nM, 2 mM 4-methylumbelliferyl N-acetyl-β-D-glucosaminide, pH 7.0, Cheng-Prusoff; read-out: Fluorescence-based hOGA Ki.

The subject of data set [1] is O-GlcNAcylated protein in rat PC-12 cells. The data set is described as follows: Cell-based ELISA for cellular activity of O-GlcNAcase inhibitors (RL-2 antibody). The conditions noted are these: 24 h treatment, increase in O-GlcNAcylated protein detected with RL-2 antibody. (In general: ELISA stands for enzyme-linked immunosorbent assay.)
Description: Inhibition of O-GlcNAcase, which removes O-GlcNAc from cellular proteins, results in an increase in the level of O-GlcNAcylated protein in cells. An increase in O-GlcNAcylated protein can be measured by an antibody, such as RL-2, that binds to O-GlcNAcylated protein. The amount of O-GleNAcylated protein:RL2 antibody interaction can be measured by enzyme linked immunosorbant assay (ELISA) procedures.
A variety of tissue culture cell lines, expressing endogenous levels of O-GlcNAcase, can be utilized; examples include rat PC-12, and human U-87, or SK-N-SH cells. In this assay,rat PC-12 cells were plated in 96-well plates with approximately 10,000 cells/well. Compounds to be tested were dissolved in DMSO, either 2 or 10 mM stock solution, and then diluted with DMSO and water in a two-step process using a Tecan workstation. […] To prepare a cell lysate, the media from compound treated cells was removed, the cells were washed once with phosphate buffered saline (PBS) and then lysed for 5 minutes at room temperature in 50 μL of Phosphosafe reagent (Novagen Inc, Madison, Wis.) with protease inhibitors and PMSF. The cell lysate was collected and transferred to a new plate, which was then either coated to assay plates directly or frozen −80° C. until used in the ELISA procedure. If desired, the total protein concentration of samples was determined using 20 μL of the sample using the BCA method.
The ELISA portion of the assay was performed in a black Maxisorp 96-well plate that was coated overnight at 4° C. with 100 μL/well of the cell lysate (1:10 dilution of the lysate with PBS containing protease inhibitors, phosphatase inhibitors, and PMSF). The following day the wells were washed 3 times with 300 μL/well of Wash buffer (Tris-buffered saline with 0.1% Tween 20). The wells were blocked with 100 μl/well Blocking buffer (Tris buffered saline w/0.05% Tween 20 and 2.5% Bovine serum albumin). Each well was then washed two times with 300 μL/well of wash buffer. […] The plate was sealed and incubated at 37° C. for 2 h with gentle shaking. The wells were then washed 3-times with 300 μL/well wash buffer. […] The plate was incubated for 60 min at 37° C. with gentle shaking. Each well was then washed 3-times with 300 μL/well wash buffer. The detection reagent was added, 100 μL/well of Amplex Ultra RED reagent (prepared by adding 30 μL of 10 mM Amplex Ultra Red stock solution to 10 mL PBS with 18 μL 3% hydrogen peroxide, H2O2). The detection reaction was incubated for 15 minutes at room temperature and then read with excitation at 530 nm and emission at 590 nm.
The amount of O-GlcNAcylated protein, as detected by the ELISA assay, was plotted for each concentration of test compound using standard curve fitting algorithms for sigmoidal dose response curves. The values for a four parameter logistic curve fit of the data were determined, with the inflection point of the curve being the potency value for the test compound.
Data set [2] in a line: Assay for determination of apparent permeability (Papp), bi-directional transport. The format is in vitro ADME. To be noted: pig, LLC-PK1; 1 μM test compound, t=3 h, average of A to B and B to A; read-out: Papp LLC-PK-1 cells. As to the method:
Bi-directional transport was evaluated in LLC-PK1 cells in order to determine apparent permeability (Papp). LLC-PK1 cells can form a tight monolayer and therefore can be used to assess vectorial transport of compounds from basolateral to apical (B→A) and from apical to basolateral (A→B).
To determine Papp, LLC-PK1 cells were cultured in 96-well transwell culture plates (Millipore). Solutions containing the test compounds (1 μM) were prepared in Hank's Balanced Salt Solution with 10 mM HEPES. Substrate solution (150 μL) was added to either the apical (A) or the basolateral (B) compartment of the culture plate, and buffer (150 μL) was added to the compartment opposite to that containing the compound. At t=3 h, 50 μL samples were removed from both sides of monolayers dosed with test compound and placed in 96 well plates, scintillant (200 μL) or internal standard (100 μL labetolol 104) was added to the samples and concentration was determined by liquid scintillation counting in a MicroBeta Wallac Trilux scintillation counter (Perkin Elmer Life Sciences, Boston, Mass.) or by LCMS/MS (Applied Biosystems SCIEX API 5000 triple quadruple mass spectrometer). [^3H]Verapamil (1 μM) was used as the positive control. The experiment was performed in triplicate.
The apparent permeability, Papp, was calculated by the following formula for samples taken at t=3 h:
[formula] Where: Volume of Receptor Chamber was 0.15 mL; Area of membrane was 0.11 cm^2; the Initial Concentration is the sum of the concentration measured in the donor plus concentration measured in receiver compartments at t=3 h; Δ in Concentration is concentration in the receiver compartment at 3 h; and Δ in Time is the incubation time (3×60×60=10800 s). Papp was expressed as 10^−6 cm/s. The Papp (LLC-PK1 cells) are the average of the Papp for transport from A to B and Papp for transport from B to A at t=3 h: […]

Eleven compounds from patent US9243020B2, “Selective glycosidase inhibitors and uses thereof” (priority 2010, dated 2016) can be followed below.

Broadly, the Ki is a dissociation constant, usually derived from enzyme kinetics or from competition with a known ligand. The EC50 is the concentration that produces a half-maximal response. Read a high EC50 as lower potency in that assay. One may read the Papp as a coefficient for how fast a substance crosses the barrier.

Sequence of human O-GlcNAcase (O60502 whole entry): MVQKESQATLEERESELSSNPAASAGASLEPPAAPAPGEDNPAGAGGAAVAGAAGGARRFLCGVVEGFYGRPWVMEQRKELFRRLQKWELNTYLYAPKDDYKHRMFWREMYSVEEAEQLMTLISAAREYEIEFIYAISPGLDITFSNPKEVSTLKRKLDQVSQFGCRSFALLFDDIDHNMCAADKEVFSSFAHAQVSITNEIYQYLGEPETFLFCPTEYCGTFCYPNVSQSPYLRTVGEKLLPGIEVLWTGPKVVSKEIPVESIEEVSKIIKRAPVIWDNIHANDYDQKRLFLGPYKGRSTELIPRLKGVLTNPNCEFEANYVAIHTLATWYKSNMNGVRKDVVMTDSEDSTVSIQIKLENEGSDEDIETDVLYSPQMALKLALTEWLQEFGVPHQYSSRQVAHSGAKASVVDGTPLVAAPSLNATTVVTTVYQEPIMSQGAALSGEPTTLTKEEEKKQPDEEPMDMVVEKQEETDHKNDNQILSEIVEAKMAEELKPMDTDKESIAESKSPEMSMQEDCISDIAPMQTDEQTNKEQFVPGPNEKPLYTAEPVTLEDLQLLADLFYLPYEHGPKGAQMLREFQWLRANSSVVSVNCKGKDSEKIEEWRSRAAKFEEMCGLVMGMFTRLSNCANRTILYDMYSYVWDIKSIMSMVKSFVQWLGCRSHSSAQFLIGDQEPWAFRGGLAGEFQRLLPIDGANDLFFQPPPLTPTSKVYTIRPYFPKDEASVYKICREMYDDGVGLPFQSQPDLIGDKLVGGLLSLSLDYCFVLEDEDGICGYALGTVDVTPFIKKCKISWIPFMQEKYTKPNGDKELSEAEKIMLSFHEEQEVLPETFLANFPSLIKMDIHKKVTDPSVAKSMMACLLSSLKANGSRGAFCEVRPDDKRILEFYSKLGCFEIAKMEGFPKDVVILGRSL
Protocol for human O-GlcNAcase: Experimental procedure for kinetic analyses: Enzymatic reactions were carried out in a reaction containing 50 mM NaH2PO4, 100 mM NaCl and 0.1% BSA (pH 7.0) using 2 mM 4-Methylumbelliferyl N-acetyl-β-D-glucosaminide dihydrate (Sigma M2133) dissolved in ddH2O, as a substrate. The amount of purified human O-GlcNAcase enzyme used in the reaction was 0.7 nM. Test compound of varying concentrations was added to the enzyme prior to initiation of the reaction. The reaction was performed at room temperature in a 96-well plate and was initiated with the addition of substrate. […] The slope of product production was determined for each concentration of compound tested and plotted, using standard curve fitting algorithms for sigmoidal dose response curves. The values for a four parameter logistic curve fit of the data were determined.

With `CN(C)C1=N[C@@H]2[C@@H](O)[C@H](O)[C@@H](CO)O[C@@H]2S1` [(3aR,5R,6S,7R,7aR)-2-(dimethylamino)-5-(hydroxymethyl)-5,6,7,7a-tetrahydro-3aH-pyrano[3,2-d]thiazole-6,7-diol, reference compound], the Ki at human O-GlcNAcase came to 0.3 nM. The EC50 in data set [1] was found to be 10 nM. The Papp at 3 h, 1 μM in data set [2] is under 1 ×10⁻⁶ cm/s.

For `CCNC1=N[C@@H]2[C@@H](O)[C@H](O)[C@@H](CO)O[C@@H]2S1` [(3aR,5R,6S,7R,7aR)-2-(ethylamino)-5-(hydroxymethyl)-5,6,7,7a-tetrahydro-3aH-pyrano[3,2-d]thiazole-6,7-diol, reference compound], the Papp at 3 h, 1 μM in data set [2] is under 1 ×10⁻⁶ cm/s.

In the case of `CCNC1=N[C@@H]2[C@@H](O)[C@H](O)[C@@H](C)O[C@@H]2S1` [Example 1, (3aR,5R,6S,7R,7aR)-2-(ethylamino)-5-methyl-5,6,7,7a-tetrahydro-3aH-pyrano[3,2-d]thiazole-6,7-diol], the Ki on human O-GlcNAcase is 70 nM.

With `CCNC1=N[C@@H]2C[C@H](O)[C@@H](CO)O[C@@H]2S1` [Example 2, (3aR,5R,6S,7aR)-2-(ethylamino)-5-(hydroxymethyl)-5,6,7,7a-tetrahydro-3aH-pyrano[3,2-d]thiazol-6-ol], in data set [2], the apparent permeability coefficient (Papp) at 3 h, 1 μM stood at 3.8 ×10⁻⁶ cm/s.

As for `CNC1=N[C@@H]2[C@@H](F)[C@H](O)[C@@H](CO)O[C@@H]2S1` [Example 9, (3aR,5R,6R,7R,7aR)-7-fluoro-5-(hydroxymethyl)-2-(methylamino)-5,6,7,7a-tetrahydro-3aH-pyrano[3,2-d]thiazol-6-ol], the Ki at human O-GlcNAcase amounted to 1.3 nM. In data set [1], this compound registered an EC50 of 307 nM.

For the compound `CNC1=N[C@@H]2[C@@H](O)[C@H](O)[C@@H](CF)O[C@@H]2S1` [Example 17, (3aR,5S,6S,7R,7aR)-5-(fluoromethyl)-2-(methylamino)-5,6,7,7a-tetrahydro-3aH-pyrano[3,2-d]thiazole-6,7-diol], the Ki on human O-GlcNAcase was 0.5 nM. The same compound yielded an EC50 in data set [1] of 34 nM. Besides, in data set [2], the Papp at 3 h, 1 μM was 7.1 ×10⁻⁶ cm/s.

`CCNC1=N[C@@H]2[C@@H](O)[C@H](O)[C@@H](C(F)F)O[C@@H]2S1` [Example 19, (3aR,5S,6S,7R,7aR)-5-(difluoromethyl)-2-(ethylamino)-5,6,7,7a-tetrahydro-3aH-pyrano[3,2-d]thiazole-6,7-diol]: the Ki on human O-GlcNAcase is 5.7 nM. For the same compound, in data set [1], the EC50 is 53 nM. Besides, the Papp at 3 h, 1 μM in data set [2] is 6 ×10⁻⁶ cm/s.

Take `CN(C)C1=N[C@@H]2[C@@H](O)[C@H](O)[C@@H](C(F)F)O[C@@H]2S1` [Example 20, (3aR,5S,6S,7R,7aR)-5-(difluoromethyl)-2-(dimethylamino)-5,6,7,7a-tetrahydro-3aH-pyrano[3,2-d]thiazole-6,7-diol]: the Ki at human O-GlcNAcase worked out at 1.4 nM. Also, in data set [1], the EC50 is 6 nM. Further, the Papp at 3 h, 1 μM in data set [2] amounted to 13.7 ×10⁻⁶ cm/s.

With `CNC1=N[C@@H]2C[C@H](O)[C@@H](C(F)F)O[C@@H]2S1` [Example 27, (3aR,5S,6S,7aR)-5-(difluoromethyl)-2-(methylamino)-5,6,7,7a-tetrahydro-3aH-pyrano[3,2-d]thiazol-6-ol], the Ki at human O-GlcNAcase turned out to be 28 nM. In data set [2], the Papp at 3 h, 1 μM was 24 ×10⁻⁶ cm/s.

For `CCNC1=N[C@@H]2[C@@H](O)[C@@H](O)[C@@H](C(F)F)O[C@@H]2S1` [Example 29, (3aR,5S,6R,7R,7aR)-5-(difluoromethyl)-2-(ethylamino)-5,6,7,7a-tetrahydro-3aH-pyrano[3,2-d]thiazole-6,7-diol], the Ki at human O-GlcNAcase amounted to 164 nM.

For `CNC1=N[C@@H]2[C@H](F)[C@H](O)[C@@H](C(F)F)O[C@@H]2S1` [Example 33, (3aR,5S,6R,7S,7aR)-5-(difluoromethyl)-7-fluoro-2-(methylamino)-5,6,7,7a-tetrahydro-3aH-pyrano[3,2-d]thiazol-6-ol], the Ki at human O-GlcNAcase was found to be 13 nM. Further, the Papp at 3 h, 1 μM in data set [2] was determined as 20.1 ×10⁻⁶ cm/s.
